The target in one experiment is T1, ovine COX-1 enzyme (Ovis aries, UniProt P05979).
T1 construct: purchased Cayman Chemicals 701050
T1 sequence (P05979 25-600): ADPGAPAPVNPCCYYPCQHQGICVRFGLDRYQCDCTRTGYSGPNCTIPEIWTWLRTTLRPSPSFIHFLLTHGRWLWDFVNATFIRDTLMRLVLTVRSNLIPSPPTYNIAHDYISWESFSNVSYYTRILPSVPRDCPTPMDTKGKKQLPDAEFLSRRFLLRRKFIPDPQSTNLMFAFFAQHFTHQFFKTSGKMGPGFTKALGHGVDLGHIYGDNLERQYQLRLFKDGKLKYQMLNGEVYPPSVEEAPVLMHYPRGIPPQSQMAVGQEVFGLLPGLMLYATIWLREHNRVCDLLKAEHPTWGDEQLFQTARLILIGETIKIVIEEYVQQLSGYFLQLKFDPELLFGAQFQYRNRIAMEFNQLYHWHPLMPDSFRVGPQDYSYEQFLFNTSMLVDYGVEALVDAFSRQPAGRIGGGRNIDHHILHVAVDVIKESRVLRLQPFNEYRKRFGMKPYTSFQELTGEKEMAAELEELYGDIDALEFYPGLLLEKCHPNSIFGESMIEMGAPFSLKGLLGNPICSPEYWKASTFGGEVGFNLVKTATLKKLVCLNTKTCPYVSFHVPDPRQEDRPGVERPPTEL
Put plainly: COX colourimetric inhibition screening assay, COX-1. The format is biochemical. The note with it: synthesised peptide. As to the method:
The anti-pain and anti-inflammatory bioactivities of generated mesopelagic hydrolysates and permeates were assessed using a cyclooxygenase inhibition assay, targeting human COX-2 and ovine COX-1 enzymes, as described previously. COX (Prostaglandin H synthase) inhibition plays a positive role in the prevention of a variety of health conditions, and COX inhibitors have documented analgesic, anti-inflammatory, and antipyretic properties. They can influence pain and inflammation related to diseases like osteoarthritis and rheumatoid arthritis, musculoskeletal injury, migraines, and cancer. COX inhibitors are indicated for mild pain and are usually prescribed for short durations of time to patients. […] COX inhibition was calculated using the following Equation:% COX inhibition = (Corrected 100% initial activity − Corrected Inhibitor activity)/(Corrected 100% initial activity) × 100(1) where Corrected 100% initial activity was the absorbance value recorded for wells containing 150 µL 1× assay Buffer, 10 µL of either COX-1 or COX-2 enzyme and 10 µL of solvent (DMSO) minus the absorbance value recorded for the background well containing 160 µL of 1× Assay Buffer and 10 µL of solvent.

The next experiment concerns the target T2, human COX-2 enzyme (Homo sapiens, UniProt P35354).
T2 construct: purchased Cayman Chemicals 701050
T2 sequence (P35354 18-604): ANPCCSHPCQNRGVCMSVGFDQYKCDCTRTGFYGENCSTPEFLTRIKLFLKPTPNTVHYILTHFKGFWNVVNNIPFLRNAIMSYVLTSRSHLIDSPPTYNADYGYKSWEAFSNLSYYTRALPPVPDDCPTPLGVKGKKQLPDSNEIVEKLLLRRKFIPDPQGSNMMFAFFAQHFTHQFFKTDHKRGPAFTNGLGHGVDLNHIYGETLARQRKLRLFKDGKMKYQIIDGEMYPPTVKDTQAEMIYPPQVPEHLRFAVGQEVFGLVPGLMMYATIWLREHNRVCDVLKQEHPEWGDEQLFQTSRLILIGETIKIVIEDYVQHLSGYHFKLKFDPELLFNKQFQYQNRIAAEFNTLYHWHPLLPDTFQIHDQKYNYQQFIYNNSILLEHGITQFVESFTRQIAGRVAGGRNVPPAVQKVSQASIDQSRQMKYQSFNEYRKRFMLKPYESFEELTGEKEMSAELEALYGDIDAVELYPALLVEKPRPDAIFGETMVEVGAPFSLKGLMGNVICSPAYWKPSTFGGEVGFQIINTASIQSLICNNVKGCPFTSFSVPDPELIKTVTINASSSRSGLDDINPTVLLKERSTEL
Put plainly: COX colourimetric inhibition screening assay, COX-2. The format is biochemical. The note with it: for IC50 / inhibition at 1000 µg/mL: synthesised peptide; for inhibition at 1000 µg/mL: 1 mg/mL. As to the method:
The anti-pain and anti-inflammatory bioactivities of generated mesopelagic hydrolysates and permeates were assessed using a cyclooxygenase inhibition assay, targeting human COX-2 and ovine COX-1 enzymes, as described previously. […] They can influence pain and inflammation related to diseases like osteoarthritis and rheumatoid arthritis, musculoskeletal injury, migraines, and cancer. COX inhibitors are indicated for mild pain and are usually prescribed for short durations of time to patients.

The next experiment addresses T3, MAGL enzyme (Homo sapiens, UniProt Q99685).
T3 construct: purchased Cayman
T3 sequence (Q99685 1-303): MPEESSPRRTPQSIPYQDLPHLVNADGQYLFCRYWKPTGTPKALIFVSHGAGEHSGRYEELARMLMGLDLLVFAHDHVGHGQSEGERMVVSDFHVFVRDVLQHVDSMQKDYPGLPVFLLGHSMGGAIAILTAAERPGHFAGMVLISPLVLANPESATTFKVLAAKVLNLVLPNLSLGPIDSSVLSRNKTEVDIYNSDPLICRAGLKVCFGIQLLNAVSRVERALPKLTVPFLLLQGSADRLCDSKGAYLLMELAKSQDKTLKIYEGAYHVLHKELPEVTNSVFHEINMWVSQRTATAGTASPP
Put plainly: Monoacylglycerol lipase inhibition screening assay. Type of experiment: biochemical. The text has this:
Monoacylglycerol lipase (MAGL) is a serine hydrolase that catalyses the hydrolysis of monoglycerides into glycerol and fatty acids and links the endocannabinoid and eicosanoid systems through degradation of 2-arachidaoylglycerol to arachidonic acid, a precursor of prostaglandins and other inflammatory mediators. MAGL inhibitors can have anti-nociceptive, anxiolytic, anti-inflammatory and even anti-cancer benefits. The Cayman’s Monoacylglycerol lipase inhibition screening assay kit was used to measure the inhibition of MAGL by generated hydrolysates and the positive control JZL 195 inhibitor. The assay was performed in compliance with the manufacturer’s instructions. MAGL hydrolyses 4-Nitrophenylacetate, resulting in a yellow product, 4-nitrophenol, that has an absorbance between 405–412 nm. The […] of the yellow colour is indicative of MAGL inhibition. MAGL inhibition was calculated using the following Equation:% MAGL inhibition = (corrected 100% initial activity − corrected inhibitor activity)/(corrected 100% initial activity) × 100(2) where corrected 100% initial activity was the absorbance value recorded for wells containing 150 µL 1× assay Buffer, 10 µL of MAGL enzyme and 10 µL of solvent minus the absorbance value recorded for the background well containing 160 µL of 1× Assay Buffer and 10 µL of solvent (1.4% DMSO in water).

The next experiment concerns COX-1. Also on record: method as in PMID 20188172. The note with it: known COX-1 selective inhibitors from Chinese herbs; cited from earlier work.
The test system of a further experiment is COX-2. Also on record: method as in PMID 20188172. The note with it: known COX-2 selective inhibitors; read-out: COX2- IC50; cited from earlier work.
A further experiment deals with LOX-1 expression. Also on record: method as in PMID 30955604. The note with it: peptides from amaranth; cited from earlier work.
Experiment [1] has as its system nitric oxide (NO) production. Also on record: method as in doi:10.48022/mbl.2109.09005. The note with it: peptide from mollusc abalone; cited from earlier work.

Residues, ends and D or L forms follow the SMILES beside them.

`CC[C@H](C)[C@H](N)C(=O)N[C@@H](C)C(=O)NCC(=O)N[C@@H](Cc1ccccc1)C(=O)N[C@@H](CCC(=O)O)C(=O)N[C@H](C(=O)N[C@@H](Cc1ccccc1)C(=O)N[C@@H](CC(=O)O)C(=O)N[C@@H](Cc1ccccc1)C(=O)N[C@@H](CC(N)=O)C(=O)N[C@@H](CO)C(=O)N[C@@H](CC(C)C)C(=O)N[C@@H](CCC(=O)O)C(=O)N[C@@H](CCC(N)=O)C(=O)N[C@@H](CC(C)C)C(=O)N[C@@H](CS)C(=O)O)[C@@H](C)CC` (H-IAGFEIFDFNSLEQLC-OH): the IC50 – broadly, the concentration needed to halve the response being measured – against ovine COX-1 enzyme is 103 µM; at human COX-2 enzyme it was 366 µM. The inhibition – broadly, the change of the read-out against control, counted positive when it falls – at 1000 µg/mL worked out at 53.3% against ovine COX-1 enzyme (1 mg/mL) and 47.5% at human COX-2 enzyme. For the same compound, at human COX-2 enzyme (COX-1 versus COX-2 IC50 of synthesised peptide), the selectivity index is 0.52.
For `CC[C@H](C)[C@H](NC(=O)[C@H](CC(C)C)NC(=O)[C@H](C)NC(=O)[C@H](CCC(=O)O)NC(=O)[C@@H]1CCCN1C(=O)[C@H](CC(C)C)NC(=O)CNC(=O)[C@H](CC(C)C)NC(=O)[C@H](C)NC(=O)[C@H](C)NC(=O)[C@@H](NC(=O)[C@H](CC(C)C)NC(=O)[C@H](Cc1ccccc1)NC(=O)[C@@H](NC(=O)[C@H](CS)NC(=O)[C@@H](NC(=O)[C@@H](NC(=O)[C@H](CCC(=O)O)NC(=O)CNC(=O)[C@@H](NC(=O)[C@@H](N)CC(N)=O)C(C)C)C(C)C)C(C)C)[C@@H](C)CC)[C@@H](C)O)C(=O)O` (H-NVGEVVCIFLTAALGLPEALI-OH), on MAGL enzyme (synthesised peptide), the IC50 was 6.35 µM. This compound came in with an inhibition at 500 µg/mL against MAGL enzyme (synthesised peptide, 0.5 mg/mL) of 53%.
Regarding `CSCC[C@H](NC(=O)[C@H](Cc1ccccc1)NC(=O)[C@H](CCC(N)=O)NC(=O)[C@H](Cc1ccc(O)cc1)NC(=O)[C@H](C)NC(=O)[C@H](CC(N)=O)NC(=O)[C@H](CC(=O)O)NC(=O)[C@@H](N)CO)C(=O)N[C@@H](CC(C)C)C(=O)N[C@H](C(=O)O)[C@@H](C)O` (H-SDNAYQFMLT-OH), 500 µg/mL produced 53.7% inhibition on ovine COX-1 enzyme (0.5 mg/mL).
With `CC(=O)O[C@@H]1CC[C@@]2(C)[C@@H](CC[C@]3(C)[C@@H]2C(=O)C=C2[C@@H]4[C@@H](C)[C@H](C)CC[C@]4(C)CC[C@]23C)[C@@]1(C)C(=O)O` [Acetyl-11-keto-β-boswellic acid], in the experiment with COX-1, the IC50 was about 10 µM.
Regarding `O=C(Oc1ccc([N+](=O)[O-])cc1)N1CCN(Cc2cccc(Oc3ccccc3)c2)CC1` [JZL 195, reference compound], the “% MAGL inhibition” value at MAGL enzyme (positive control at 4.4 µM) was 98.16%.
On to `CC(C)C[C@H](NC(=O)[C@H](C)NC(=O)[C@H](Cc1c[nH]c2ccccc12)NC(=O)[C@@H]1CCCN1C(=O)[C@H](CCCNC(=N)N)NC(=O)[C@H](Cc1c[nH]cn1)NC(=O)[C@H](CC(C)C)NC(=O)[C@@H]1CCCN1C(=O)[C@H](CS)NC(=O)[C@@H](N)CCC(N)=O)C(=O)O` [QCPLHRPWAL] (H-QCPLHRPWAL-OH), for which, on ovine COX-1 enzyme (concentration not printed with the value), the “% COX-1 inhibition” value was 82.90% (+/−0.54). For the same compound, at human COX-2 enzyme, the half-inhibitory concentration (IC50) was 221 µM and 1000 µg/mL produced 53.8% inhibition.
As for `CCC/C=C1\OC(=O)C2=C1CC[C@H]1[C@H]3C=C4C(=O)O/C(=C\CCC)[C@@]4(CC3)[C@@H]21` [Senkyunolide O], the concentration for half-maximal inhibition (IC50) in the experiment with COX-2 was 5 µM.
`CC(=O)O[C@@H]1CC[C@@]2(C)[C@@H](CC[C@]3(C)[C@@H]2CC=C2[C@@H]4CC(C)(C)CC[C@]4(C)CC[C@]23C)[C@@]1(C)C(=O)O` [acetyl-α-boswellic acid]: the IC50 with COX-1 is about 10 µM.
Turning to `CC(=O)O[C@@H]1CC[C@@]2(C)[C@@H](CC[C@]3(C)[C@@H]2CC=C2[C@@H]4[C@@H](C)[C@H](C)CC[C@]4(C)CC[C@]23C)[C@@]1(C)C(=O)O` [acetyl-β-boswellic acid], the IC50 in the experiment with COX-1 was about 10 µM.
Regarding `C[C@H]1COC2=C1C(=O)C(=O)c1c2ccc2c1CCCC2(C)C` [cryptotanshinone], in the experiment on COX-2, the 50% inhibitory concentration (IC50) was 22 µM.
Take `C[C@H]1[C@H](C)CC[C@]2(C)CC[C@]3(C)C(=CC[C@@H]4[C@@]5(C)CC[C@@H](O)[C@](C)(C(=O)O)[C@@H]5CC[C@]43C)[C@H]12` [β-boswellic acid]: the IC50 in the experiment with COX-1 is about 10 µM.
As to “FDAFLPM [peptide from Irish M. muelleri Alcalase hydrolysate (Code 23), chemically synthesised]”, in the experiment with ovine COX-1 enzyme (0.5 mg/mL), the “% COX-1 inhibition” value was found to be 34.49%.
For the compound “HGSEPFGPR [literature anti-inflammatory peptide from amaranth]”, the “effect on LOX-1 expression” value with LOX-1 expression was “reduce LOX-1 expression”.
With “PFNEGTFAAS [literature peptide derived from mollusc abalone]”, in experiment [1], the “NO IC50” value was 54.07 µg/mL.
Take “RPRYPWRYT [literature anti-inflammatory peptide from amaranth]”: the “effect on LOX-1 expression” value in the experiment with LOX-1 expression is on record as “reduce LOX-1 expression”.
